{"source": "paper PMC7605553", "about": "(bioRxiv, 2020)", "origin": "cited, not measured here", "test_system": "SARS-CoV-2", "details": "read-out: EC50 for inhibition of SARS-CoV-2 infection; Calu-3 cells", "note": "Counter-ions that a name gives are not always drawn.", "data": [{"molecule": "CN(C)C(=O)COC(=O)Cc1ccc(OC(=O)c2ccc(NC(=N)N)cc2)cc1", "note": "[camostat mesylate]", "values": [{"measurement": "EC50", "result": 1000, "unit": "nM"}]}]}
